Test results: patent US9079974B2, “GH-RH analogs with potent agonistic effects” (The University of Miami, priority 2011, dated 2015)
“Also recorded” adds a separate entry of the source. Square brackets hold non-standard residues; d marks the D form. Peptide text beside a SMILES is read from it. * marks the point of attachment. Phe(F5) = N[C@@H](Cc1c(F)c(F)c(F)c(F)c1F)C(=O)O; Desaminotyrosyl = O=C(CCc1ccc(O)cc1)*; NMeY = CN[C@@H](Cc1ccc(O)cc1)C(=O)O; Agmatine = N=C(N)NCCCCN*; Nle = CCCC[C@H](N)C(=O)O; Orn = NCCC[C@H](N)C(=O)O; Abu = CC[C@H](N)C(=O)O; Ava = NCCCCC(=O)O; GABA = NCCCC(=O)O

system: GH release; assay: In vivo GH release after subcutaneous administration; details: rat, s.c.
Experimental: Blood samples are taken from the jugular vein; 5, 15 and 30 minutes or only 15 and 30 minutes after the injection. The blood samples are centrifuged, plasma is removed and the GH level is measured by ELISA. The results are summarized in terms of potency in Table 9.

SMILES | GH response after subcutaneous administration (in words)
CCCC[C@H](NC(=O)[C@@H](NC(=O)[C@H](CC(=O)O)NC(=O)[C@H](CCC(N)=O)NC(=O)[C@H](CC(C)C)NC(=O)[C@H](CC(C)C)NC(=O)[C@H](CCCN)NC(=O)[C@H](CCCNC(=N)N)NC(=O)[C@H](C)NC(=O)[C@H](CO)NC(=O)[C@H](CC(C)C)NC(=O)[C@H](CCC(N)=O)NC(=O)[C@H](CC)NC(=O)[C@H](CC(C)C)NC(=O)[C@@H](NC(=O)[C@H](CCCN)NC(=O)[C@H](CCCNC(=N)N)NC(=O)[C@H](Cc1ccc(O)cc1)NC(=O)[C@H](CO)NC(=O)[C@H](CCC(N)=O)NC(=O)[C@@H](NC(=O)[C@H](Cc1ccccc1)NC(=O)[C@@H](NC(=O)[C@H](C)NC(=O)[C@H](CC(=O)O)NC(=O)[C@@H](C)NC(=O)CCc1ccc(O)cc1)[C@@H](C)CC)[C@@H](C)O)C(C)C)[C@@H](C)CC)C(=O)N[C@@H](CC(=O)O)C(=O)NCCCCNC(=N)N [Peptide P-20350, [Dat^1, D-Ala^2, Gln^8, Orn^12, Abu^15, Orn^21, Nle^27, Asp^28, Agm^29]hGH-RH(1-29)] (Desaminotyrosyl-[dA]DAIFTQSYR[Orn]VL[Abu]QLSAR[Orn]LLQDI[Nle]D-Agmatine) | unusually high responses; also recorded: especially greater growth hormone levels than hGH-RH or JI-38
CCCC[C@H](NC(=O)[C@@H](NC(=O)[C@H](CC(=O)O)NC(=O)[C@H](CCC(N)=O)NC(=O)[C@H](CC(C)C)NC(=O)[C@H](CC(C)C)NC(=O)[C@H](CCCN)NC(=O)[C@H](CCCNC(=N)N)NC(=O)[C@H](C)NC(=O)[C@H](CO)NC(=O)[C@H](CC(C)C)NC(=O)[C@H](CCC(N)=O)NC(=O)[C@H](CC)NC(=O)[C@H](CC(C)C)NC(=O)[C@@H](NC(=O)[C@H](CCCN)NC(=O)[C@H](CCCNC(=N)N)NC(=O)[C@H](Cc1ccc(O)cc1)NC(=O)[C@H](CO)NC(=O)[C@H](CCC(N)=O)NC(=O)[C@@H](NC(=O)[C@H](Cc1ccccc1)NC(=O)[C@@H](NC(=O)[C@H](C)NC(=O)[C@H](CC(=O)O)NC(=O)[C@@H](C)NC(=O)[C@H](Cc1ccc(O)cc1)NC)[C@@H](C)CC)[C@@H](C)O)C(C)C)[C@@H](C)CC)C(=O)N[C@@H](CC(=O)O)C(=O)N[C@@H](CCCNC(=N)N)C(=O)NCCCCC(N)=O [Peptide P-22326, [N—Me-Tyr^1, D-Ala^2, Gln^8, Orn^12, Abu^15, Orn^21, Nle^27, Asp^28, Apa^30]hGH-RH(1-30)NH2] (H-[NMeY][dA]DAIFTQSYR[Orn]VL[Abu]QLSAR[Orn]LLQDI[Nle]DR[Ava]-NH2) | unusually high responses; also recorded: especially greater growth hormone levels than hGH-RH or JI-38

target: T1, GHRH receptor (Homo sapiens, UniProt Q02643); assay: GHRH receptor binding, 125I-labeled JV-1-42 ligand competition, human pituitary membrane homogenates (Table 7); details: 125I-labeled JV-1-42, human pituitary membranes
T1 construct: Normal human pituitaries were purchased from the National Hormone and Peptide Program; tissue National Hormone and Peptide Program (A. F. Parlow); host or cells: normal human pituitary, membrane fraction
T1 sequence (Q02643 23-423): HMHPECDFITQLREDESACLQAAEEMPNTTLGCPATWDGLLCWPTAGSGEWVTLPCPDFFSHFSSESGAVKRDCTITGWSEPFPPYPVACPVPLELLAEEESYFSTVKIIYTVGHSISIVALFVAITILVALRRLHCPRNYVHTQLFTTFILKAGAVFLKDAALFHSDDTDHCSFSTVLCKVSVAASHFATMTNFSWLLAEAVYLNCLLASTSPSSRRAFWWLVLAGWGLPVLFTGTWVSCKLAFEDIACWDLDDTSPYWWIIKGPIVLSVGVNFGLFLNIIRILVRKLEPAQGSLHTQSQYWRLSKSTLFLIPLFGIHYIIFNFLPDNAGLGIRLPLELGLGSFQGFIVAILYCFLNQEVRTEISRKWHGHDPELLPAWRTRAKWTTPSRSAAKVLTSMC
Experimental: Preparation of human pituitary membrane fraction and receptor binding of GHRH agonists were performed as previously described, by using a sensitive in vitro ligand competition assay based on binding of ^125I-labeled JV-1-42 to human pituitary membrane homogenates. Normal human pituitaries were purchased from the National Hormone and Peptide Program (A. F. Parlow, Los Angeles, County Harbor-UCLA Medical Center, Torrance, Calif.).

SMILES | IC50 [nM]
CCCC[C@H](NC(=O)[C@@H](NC(=O)[C@H](CC(=O)O)NC(=O)[C@H](CCC(N)=O)NC(=O)[C@H](CC(C)C)NC(=O)[C@H](CC(C)C)NC(=O)[C@H](CCCN)NC(=O)[C@H](CCCNC(=N)N)NC(=O)[C@H](C)NC(=O)[C@H](CO)NC(=O)[C@H](CC(C)C)NC(=O)[C@H](CCC(N)=O)NC(=O)[C@H](CC)NC(=O)[C@H](CC(C)C)NC(=O)[C@@H](NC(=O)[C@H](CCCN)NC(=O)[C@H](CCCNC(=N)N)NC(=O)[C@H](Cc1ccc(O)cc1)NC(=O)[C@H](CO)NC(=O)[C@H](CCC(N)=O)NC(=O)[C@@H](NC(=O)[C@H](Cc1ccccc1)NC(=O)[C@@H](NC(=O)[C@H](C)NC(=O)[C@H](CC(=O)O)NC(=O)[C@@H](C)NC(=O)[C@H](Cc1ccc(O)cc1)NC)[C@@H](C)CC)[C@@H](C)O)C(C)C)[C@@H](C)CC)C(=O)N[C@@H](CC(=O)O)C(=O)N[C@@H](CCCNC(=N)N)C(=O)NCCCCC(N)=O [Peptide P-22326, [N—Me-Tyr^1, D-Ala^2, Gln^8, Orn^12, Abu^15, Orn^21, Nle^27, Asp^28, Apa^30]hGH-RH(1-30)NH2] (H-[NMeY][dA]DAIFTQSYR[Orn]VL[Abu]QLSAR[Orn]LLQDI[Nle]DR[Ava]-NH2) | 0.71
CCCC[C@H](NC(=O)[C@@H](NC(=O)[C@H](CC(=O)O)NC(=O)[C@H](CCC(N)=O)NC(=O)[C@H](CC(C)C)NC(=O)[C@H](CC(C)C)NC(=O)[C@H](CCCN)NC(=O)[C@H](CCCNC(=N)N)NC(=O)[C@H](C)NC(=O)[C@H](CO)NC(=O)[C@H](CC(C)C)NC(=O)[C@H](CCC(N)=O)NC(=O)[C@H](CC)NC(=O)[C@H](CC(C)C)NC(=O)[C@@H](NC(=O)[C@H](CCCN)NC(=O)[C@H](CCCNC(=N)N)NC(=O)[C@H](Cc1ccc(O)cc1)NC(=O)[C@H](CO)NC(=O)[C@H](CCC(N)=O)NC(=O)[C@@H](NC(=O)[C@H](Cc1ccccc1)NC(=O)[C@@H](NC(=O)[C@H](C)NC(=O)[C@H](CC(=O)O)NC(=O)[C@@H](C)NC(=O)CCc1ccc(O)cc1)[C@@H](C)CC)[C@@H](C)O)C(C)C)[C@@H](C)CC)C(=O)N[C@@H](CC(=O)O)C(=O)N[C@H](CCCNC(=N)N)C(=O)NC [Peptide P-27401, [Dat^1, D-Ala^2, Gln^8, Orn^12, Abu^15, Orn^21, Nle^27, Asp^28, D-Arg^29]hGH-RH(1-29)NH—CH3] (Desaminotyrosyl-[dA]DAIFTQSYR[Orn]VL[Abu]QLSAR[Orn]LLQDI[Nle]D[dR]-NHMe) | 2.74
CCCC[C@H](NC(=O)[C@@H](NC(=O)[C@H](CC(=O)O)NC(=O)[C@H](CCC(N)=O)NC(=O)[C@H](CC(C)C)NC(=O)[C@H](CC(C)C)NC(=O)[C@H](CCCN)NC(=O)[C@H](CCCNC(=N)N)NC(=O)[C@H](C)NC(=O)[C@H](CO)NC(=O)[C@H](CC(C)C)NC(=O)[C@H](CCC(N)=O)NC(=O)[C@H](CC)NC(=O)[C@H](CC(C)C)NC(=O)[C@@H](NC(=O)[C@H](CCCN)NC(=O)[C@H](CCCNC(=N)N)NC(=O)[C@H](Cc1ccc(O)cc1)NC(=O)[C@H](CO)NC(=O)[C@H](CC(N)=O)NC(=O)[C@@H](NC(=O)[C@H](Cc1c(F)c(F)c(F)c(F)c1F)NC(=O)[C@@H](NC(=O)[C@H](C)NC(=O)[C@H](CC(=O)O)NC(=O)[C@@H](C)NC(=O)[C@H](Cc1ccc(O)cc1)NC)[C@@H](C)CC)[C@@H](C)O)C(C)C)[C@@H](C)CC)C(=O)N[C@@H](CO)C(=O)N[C@@H](CCCNC(=N)N)C(=O)NCCCC(=O)NC [Peptide P-27414, [N—Me-Tyr^1, D-Ala^2, Fpa5^6, Orn^12, Abu^15, Orn^21, Nle^27, Gab^30]hGH-RH(1-30)NH—CH3] (H-[NMeY][dA]DAI[Phe(F5)]TNSYR[Orn]VL[Abu]QLSAR[Orn]LLQDI[Nle]SR[GABA]-NHMe) | 1.56
CCCC[C@H](NC(=O)[C@@H](NC(=O)[C@H](CC(=O)O)NC(=O)[C@H](CCC(N)=O)NC(=O)[C@H](CC(C)C)NC(=O)[C@H](CC(C)C)NC(=O)[C@H](CCCN)NC(=O)[C@H](CCCNC(=N)N)NC(=O)[C@H](C)NC(=O)[C@H](CO)NC(=O)[C@H](CC(C)C)NC(=O)[C@H](CCC(N)=O)NC(=O)[C@H](CC)NC(=O)[C@H](CC(C)C)NC(=O)[C@@H](NC(=O)[C@H](CCCN)NC(=O)[C@H](CCCNC(=N)N)NC(=O)[C@H](Cc1ccc(O)cc1)NC(=O)[C@H](CO)NC(=O)[C@H](CCC(N)=O)NC(=O)[C@@H](NC(=O)[C@H](Cc1ccccc1)NC(=O)[C@@H](NC(=O)[C@H](C)NC(=O)[C@H](CC(=O)O)NC(=O)[C@@H](C)NC(=O)[C@H](Cc1ccc(O)cc1)NC)[C@@H](C)CC)[C@@H](C)O)C(C)C)[C@@H](C)CC)C(=O)N[C@@H](CC(=O)O)C(=O)N[C@@H](CCCNC(=N)N)C(=O)NCC [Peptide P-28420, [N—Me-Tyr^1, D-Ala^2, Gln^8, Orn^12, Abu^15, Orn^21, Nle^27, Asp^28]hGH-RH(1-29)NH—CH2—CH3] (H-[NMeY][dA]DAIFTQSYR[Orn]VL[Abu]QLSAR[Orn]LLQDI[Nle]DR-NHEt) | 0.52
CCCC[C@H](NC(=O)[C@@H](NC(=O)[C@H](CC(=O)O)NC(=O)[C@H](CCC(N)=O)NC(=O)[C@H](CC(C)C)NC(=O)[C@H](CC(C)C)NC(=O)[C@H](CCCN)NC(=O)[C@H](CCCNC(=N)N)NC(=O)[C@H](C)NC(=O)[C@H](CO)NC(=O)[C@H](CC(C)C)NC(=O)[C@H](CCC(N)=O)NC(=O)[C@H](CC)NC(=O)[C@H](CC(C)C)NC(=O)[C@@H](NC(=O)[C@H](CCCN)NC(=O)[C@H](CCCNC(=N)N)NC(=O)[C@H](Cc1ccc(O)cc1)NC(=O)[C@H](CO)NC(=O)[C@H](CC(N)=O)NC(=O)[C@@H](NC(=O)[C@H](Cc1ccccc1)NC(=O)[C@@H](NC(=O)[C@H](C)NC(=O)[C@H](CC(=O)O)NC(=O)[C@@H](C)NC(=O)[C@H](Cc1ccc(O)cc1)NC)[C@@H](C)CC)[C@@H](C)O)C(C)C)[C@@H](C)CC)C(=O)N[C@@H](CC(=O)O)C(=O)N[C@@H](CCCNC(=N)N)C(=O)NCC [Peptide P-28421, [N—Me-Tyr^1, D-Ala^2, Orn^12, Abu^15, Orn^21, Nle^27, Asp^28]hGH-RH(1-29)NH—CH2—CH3] (H-[NMeY][dA]DAIFTNSYR[Orn]VL[Abu]QLSAR[Orn]LLQDI[Nle]DR-NHEt) | 1.47
CCCC[C@H](NC(=O)[C@@H](NC(=O)[C@H](CC(=O)O)NC(=O)[C@H](CCC(N)=O)NC(=O)[C@H](CC(C)C)NC(=O)[C@H](CC(C)C)NC(=O)[C@H](CCCN)NC(=O)[C@H](CCCNC(=N)N)NC(=O)[C@H](C)NC(=O)[C@H](CO)NC(=O)[C@H](CC(C)C)NC(=O)[C@H](CCC(N)=O)NC(=O)[C@H](CC)NC(=O)[C@H](CC(C)C)NC(=O)[C@@H](NC(=O)[C@H](CCCN)NC(=O)[C@H](CCCNC(=N)N)NC(=O)[C@H](Cc1ccc(O)cc1)NC(=O)[C@H](CO)NC(=O)[C@H](CC(N)=O)NC(=O)[C@@H](NC(=O)[C@H](Cc1ccccc1)NC(=O)[C@@H](NC(=O)[C@H](C)NC(=O)[C@H](CC(=O)O)NC(=O)[C@@H](C)NC(=O)CCc1ccc(O)cc1)[C@@H](C)CC)[C@@H](C)O)C(C)C)[C@@H](C)CC)C(=O)N[C@@H](CO)C(=O)N[C@@H](CCCNC(=N)N)C(=O)N[C@@H](CCC(N)=O)C(=O)NCCCC(N)=O [Peptide P-29702, [Dat^1, D-Ala^2, Orn^12, Abu^15, Orn^21, Nle^27, Gln-Gab^30]hGH-RH(1-30)NH2] (Desaminotyrosyl-[dA]DAIFTNSYR[Orn]VL[Abu]QLSAR[Orn]LLQDI[Nle]SRQ[GABA]-NH2) | 0.86
